“And” between values parts separate entries of the source, which are not always exact repeats. Equal entries are not always repeated. HELM strings list units from the 5' end as sugar, base in round brackets, then linkage (d deoxyribose, r ribose, m 2'-O-methyl, p phosphodiester). Strings are as the collection lists them, not checked against the first reports. ss, as = sense and antisense strand; [fl2r] = 2'-fluoro
Details: siRNA
Also: test system not given here.

Substance	target mRNA knockdown
RNA1{[fl2r](A)p.[fl2r](A)p.r(C)p.r(C)p.r(C)p.[fl2r](A)p.r(C)p.r(C)p.[fl2r](A)p.r(C)p.[fl2r](A)p.r(G)p.r(C)p.[fl2r](U)p.[fl2r](A)p.r(G)p.[fl2r](A)p.[fl2r](A)p.r(C)p.[fl2r](U)p.[fl2r](U)}|RNA2{r(A)p.r(A)p.r(G)p.r(U)p.r(U)p.r(C)p.r(U)p.r(A)p.r(G)p.r(C)p.r(U)p.r(G)p.r(U)p.r(G)p.r(G)p.r(U)p.r(G)p.r(G)p.r(G)p.r(U)p.r(U)}$$$RNA1{StrandType:ss}|RNA2{StrandType:as}$	37% and 54%
RNA1{[fl2r](A)p.r(A)p.[fl2r](A)p.r(C)p.[fl2r](C)p.r(A)p.[fl2r](G)p.r(G)p.[fl2r](A)p.r(A)p.[fl2r](G)p.r(G)p.[fl2r](G)p.r(G)p.[fl2r](A)p.r(A)p.[fl2r](A)p.r(U)p.[fl2r](C)p.r(T)p.r(T)}|RNA2{r(G)p.[fl2r](A)p.r(U)p.r(U)p.r(U)p.r(C)p.r(C)p.r(C)p.r(C)p.r(U)p.r(U)p.r(C)p.r(C)p.r(U)p.r(G)p.r(G)p.r(U)p.r(U)p.r(U)p.r(T)p.r(T)}$$$RNA1{StrandType:ss}|RNA2{StrandType:as}$	42%
RNA1{[fl2r](A)p.r(A)p.[fl2r](C)p.r(C)p.[fl2r](C)p.r(A)p.[fl2r](C)p.r(C)p.[fl2r](A)p.r(C)p.[fl2r](A)p.r(G)p.[fl2r](C)p.r(U)p.[fl2r](A)p.r(G)p.[fl2r](A)p.r(A)p.[fl2r](C)p.r(U)p.r(U)}|RNA2{[fl2r](G)p.r(U)p.r(U)p.r(C)p.r(U)p.r(A)p.[fl2r](G)p.r(C)p.r(U)p.[fl2r](G)p.r(U)p.[fl2r](G)p.[fl2r](G)p.r(U)p.[fl2r](G)p.[fl2r](G)p.[fl2r](G)p.r(U)p.r(U)p.r(U)p.r(U)}$$$RNA1{StrandType:ss}|RNA2{StrandType:as}$	57%
RNA1{[fl2r](A)p.r(A)p.[fl2r](C)p.r(U)p.[fl2r](C)p.r(U)p.[fl2r](A)p.r(C)p.[fl2r](U)p.r(G)p.[fl2r](U)p.r(G)p.[fl2r](G)p.r(A)p.[fl2r](G)p.r(U)p.[fl2r](C)p.r(G)p.[fl2r](G)p.r(T)p.r(T)}|RNA2{r(C)p.r(C)p.[fl2r](G)p.r(A)p.r(C)p.r(U)p.r(C)p.r(C)p.r(A)p.r(C)p.r(A)p.[fl2r](G)p.r(U)p.r(A)p.[fl2r](G)p.r(A)p.[fl2r](G)p.r(U)p.r(U)p.r(T)p.r(T)}$$$RNA1{StrandType:ss}|RNA2{StrandType:as}$	25%
RNA1{[fl2r](A)p.r(A)p.[fl2r](G)p.r(G)p.[fl2r](A)p.r(C)p.[fl2r](C)p.r(U)p.[fl2r](A)p.r(G)p.[fl2r](A)p.r(G)p.[fl2r](G)p.r(A)p.[fl2r](G)p.r(U)p.[fl2r](C)p.r(A)p.r(C)p.r(T)p.r(T)}|RNA2{r(G)p.r(U)p.r(G)p.r(A)p.r(C)p.r(U)p.r(C)p.r(C)p.r(U)p.r(C)p.r(U)p.r(A)p.r(G)p.r(G)p.r(U)p.r(C)p.r(C)p.r(U)p.r(U)p.r(T)p.r(T)}$$$RNA1{StrandType:ss}|RNA2{StrandType:as}$	31%
RNA1{[fl2r](A)p.r(A)p.[fl2r](G)p.r(G)p.[fl2r](C)p.r(C)p.[fl2r](A)p.r(A)p.[fl2r](C)p.r(C)p.[fl2r](G)p.r(A)p.[fl2r](U)p.r(A)p.[fl2r](C)p.r(U)p.[fl2r](U)p.r(C)p.[fl2r](U)p.r(T)p.r(T)}|RNA2{r(A)p.r(G)p.r(A)p.r(A)p.r(G)p.[fl2r](U)p.r(A)p.[fl2r](U)p.r(C)p.r(G)p.r(G)p.[fl2r](U)p.[fl2r](U)p.r(G)p.r(G)p.r(C)p.r(C)p.[fl2r](U)p.[fl2r](U)p.r(T)p.r(T)}$$$RNA1{StrandType:ss}|RNA2{StrandType:as}$	46%
RNA1{[fl2r](A)p.r(A)p.[fl2r](G)p.r(U)p.[fl2r](A)p.r(G)p.[fl2r](U)p.r(C)p.[fl2r](C)p.r(C)p.[fl2r](C)p.r(C)p.[fl2r](U)p.r(U)p.[fl2r](G)p.r(A)p.[fl2r](A)p.r(G)p.r(A)p.r(T)p.r(T)}|RNA2{r(U)p.r(C)p.r(U)p.r(U)p.r(C)p.r(A)p.r(A)p.r(G)p.r(G)p.r(G)p.r(G)p.r(G)p.r(A)p.r(C)p.r(U)p.r(A)p.r(C)p.r(U)p.r(U)p.r(T)p.r(T)}$$$RNA1{StrandType:ss}|RNA2{StrandType:as}$	53%

Source: the OligoGym collection
